Tested on: Rattus norvegicus
Conditions: oral

`Cc1cccc(C(C)(C)C)c1O` [2-tert-Butyl-6-methylphenol] was tested, and the NOEL (subchronic, gavage, M, Sprague-Dawley, Hematology: Ret increase, PT increase, APTT increase + Blood Chemistry: GOT increase, GPT increasegamma-GTP increase, Cho increase + …) was 8 mg/kg-day.
`BrC(Br)c1ccccc1OCC1CO1` (configuration not stated) [2-{[2-(Dibromomethyl)phenoxy]methyl}oxirane] was tested, and the NOEL (subchronic, gavage, M, Sprague-Dawley, Clinical Observation: Salivation (transient) + Absolute Organ Weight: Kidney increase + Relative Organ Weight: Kidney increase + …) was 8 mg/kg-day.
`Clc1ccc(N=Nc2ccc(Cl)c(Cl)c2)cc1Cl` [3,3',4,4'-Tetrachloroazobenzene] was tested, and the NOEL (subchronic, gavage, M/F, Fischer 344, Body Weight Changes: decrease + Hematology: Ret increase Hct decrease, Hgb decrease, RBC decrease, Plt decrease, WBC decrease, Seg decrease…) was < 0.1 mg/kg-day.
In the case of `[O-][N+](=Nc1ccc(Cl)c(Cl)c1)c1ccc(Cl)c(Cl)c1` [3,3',4,4'-Tetrachloroazoxybenzene], the NOEL (subchronic, gavage, M/F, Fischer 344, Deaths + Body Weight Changes: decrease af>>>10 + Hematology: Plt decrease Hct decrease, Hgb decrease, RBC decrease Ret increase, WBC …) is reported as < 0.1 mg/kg-day.
For `COCC(CCC(C)C)(COC)C(C)C` [3,3-Bis(methoxymethyl)-2,6-dimethylheptane], the NOEL (short-term, duration: 28 days, gavage, M/F, Clinical Observation: Salivation + Blood Chemistry: BIL increase, CL decrease + Absolute Organ Weight: Liver increase + Relative Organ …) was 8 mg/kg-day.
In the case of `CC(O[Si](C)(C)C(C)(C)C)C1CNC1=O` (configuration not stated) [3-(1-{[tert-Butyl(dimethyl)silyl]oxy}ethyl)azetidin-2-one], the NOEL (short-term, duration: 28 days, gavage, M/F, Clinical Observation: Salivation + Blood Chemistry: TP increase, T-CHO increase, TG increase, Glu decrease, Ca increase + Organ Weight: …) is reported as 8 mg/kg-day.
`Nc1cc(OCCOc2ccccc2)n[nH]1` [3-(2-Phenoxyethoxy)-1H-pyrazol-5-amine] showed an NOEL (short-term, duration: 28 days, gavage, M/F, Deaths + Clinical Observation: Salivation Locomotor activity decrease, Sedation Urinary incontinence + Body Weight Changes: Body weight …) of 40 mg/kg-day.
In the case of `O=C(O)c1cccnc1Cl` [3-Carboxy-2-chloropyridine], the NOEL (short-term, duration: 28 days, gavage, M/F, Clinical Observation: Alopecia Salivation + Blood Chemistry: GOT increase, GPT increase, ALP increase, BUN increase + Necropsy: Liver - …) is reported as 10 mg/kg-day.
With `Nc1cccc(Cl)c1` [3-Chloroaniline] the NOEL (subchronic, gavage, M/F, Fischer 344, Deaths + Clinical Observation: Bluish discoloration of the genital and footpad regions + Body Weight Changes: decrease + Hematology: Hct …) was < 10 mg/kg-day.
Work on `Cl.Cl.Nc1ccc(Cc2ccc(N)cc2)cc1` [4,4'-Methylenedianiline dihydrochloride] yielded an NOEL (subchronic, duration: 13 weeks, water, M/F, Fischer 344, Body Weight Changes: decrease + Histopathology: Liver/bile duct- Hyperplasia Thyroid-Adenomatous goiter Thyroid-Follicullar-cell hyperplasia…) of 30.4 mg/kg-day.
With `Nc1ccc(Cl)cc1[N+](=O)[O-]` [4-Chloro-2-nitroaniline] the NOEL (subchronic, gavage, M, Sprague-Dawley, Hematology: Hct decrease, Ret increase + Relative Organ Weight: Heat increase, Liver increase, Kidneys increase, Adrenals increase + …) was 10 mg/kg-day.
For `COc1ccc(N)c([N+](=O)[O-])c1` [4-Methoxy-2-nitroaniline], the NOEL (subchronic, gavage, M, Sprague-Dawley, Clinical Observation: Orangish urine Soiled fur Salivation + Body Weight Changes: decrease(trend) + Food Consumption: decrease + Absolute …) was < 12.5 mg/kg-day.
`Cc1ccc(O)c([N+](=O)[O-])c1` [4-Methyl-2-nitrophenol] showed an NOAEL (short-term, duration: 28 days, gavage, F, Sprague-Dawley, Clinical Observation: Sedation Ptosis Salivation Reddish tear Soiled perineal region + Urinalysis: Yellow colored urine pH decrease + …) of 60 mg/kg-day and an NOEL (short-term, duration: 28 days, gavage, M/F, Sprague-Dawley, Clinical Observation: Sedation Ptosis Salivation Reddish tear Soiled perineal region + Urinalysis: Yellow colored urine pH decrease + …) of 60 mg/kg-day.
`Cc1cnc[nH]1` [4-Methylimidazole] was tested, and the NOEL (subchronic, diet, M/F, Fischer 344, Deaths + Body Weight Changes: decrease + Hematology: Hct decrease, Hgb decrease, Ret decrease, Plt decrease, RBC decrease + Blood Chemistry…) was < 60 mg/kg-day.
With `C=Cc1ccc(OC(C)(C)C)cc1` [4-tert-Butoxystyrene] the NOEL (short-term, duration: 28 days, gavage, M/F, Deaths + Clinical Observation: Salivation + Body Weight Changes: Body weight gain decrease + Food Consumption: decrease + Urinalysis: Urine…) was 20 mg/kg-day.
For `CC(C)(C)c1ccc(O)c(O)c1` [4-tert-Butylcatechol], the NOEL (subchronic, diet, M/F, Fischer 344, Body Weight Changes: decrease + Food Consumption: decrease + Hematology: Hct decrease, Hgb decrease, RBC decrease + Blood Chemistry: ALT …) was < 75 mg/kg-day.
`Nc1ccc(O)c(C(=O)O)c1` [5-Aminosalicylic acid] gave an NOAEL (chronic, duration: 91 days, gavage, F, Sprague-Dawley, Deaths + Urinalysis: Volume increase, Specific gravity decrease, Occult blood Na decrease, K decrease, Cl decrease + Hematology: RBC …) of 100 mg/kg-day and an NOAEL (chronic, duration: 91 days, gavage, M, Sprague-Dawley, Deaths + Urinalysis: Volume increase, Specific gravity decrease, Occult blood Na decrease, K decrease, Cl decrease + Hematology: RBC …) of 100 mg/kg-day.
Work on `CCc1ccc(C)nc1` [5-Ethyl-2-methylpyridine] yielded an NOAEL (short-term, duration: 28 days, gavage, M/F, Sprague-Dawley, Body Weight Changes: decrease + Food Consumption: decrease + Blood Chemistry: BUN increase, CRE increase, AST increase + Relative Organ …) of 30 mg/kg-day.
In the case of `CCCCCc1ccc2c(c1)C(=O)c1ccccc1C2=O` [9,10-Anthracenedione, 2-pentyl-], the NOEL (short-term, duration: 28 days, gavage, F, Sprague-Dawley, Clinical Observation: Salivation (transient) + Hematology: RBC decrease, PT increase + Absolute Organ Weight: Liver increase + Relative …) is reported as 15 mg/kg-day.
With `NCCCCCCCCCCC(=O)O` [11-Aminoundecanoic acid] the NOEL (subchronic, duration: 13 weeks, diet, M/F, Fischer 344, Deaths + Histopathology: Kidney - mineralization Kidney - transitional-cell hyperplasia Kidney/renal pelvis - hyperplasia) was < 864 mg/kg-day.
`CC1(C)CC(=O)CC(C)(C)N1[O]` [(2,2,6,6-Tetramethyl-4-oxopiperidin-1-yl)oxidanyl] showed an NOEL (short-term, duration: 28 days, gavage, M/F, Clinical Observation: Salivation + Hematology: Trend of Anemia + Absolute Organ Weight: Spleen increase, Liver increase + Histopathology: …) of 40 mg/kg-day.
For `BrC=Cc1ccccc1` [(2-Bromovinyl)benzene], the NOEL (short-term, duration: 28 days, gavage, M/F, CD(SD), Deaths + Clinical Observation: Salivation + Urinalysis: Volume increase, Osmotic pressure decrease, Small epidermal cell + Blood Chemistry: …) was 30 mg/kg-day.
`C[C@H](CCc1ccccc1)NC[C@H](O)c1ccc(O)c(C(N)=O)c1.Cl` [(R,R)-Dilevalol hydrochloride] gave an NOEL (subchronic, duration: 90 days, gavage, M/F, Sprague-Dawley, Clinical Observation: Salivation + Body Weight Changes: body weight gain decrease + Urinalysis: Volume increase, Specific gravity decrease…) of 60 mg/kg-day.
With `CC(=O)N(C)c1ccccc1` [Acetamide, N-methyl-N-phenyl-] the NOEL (short-term, duration: 28 days, gavage, M/F, Sprague-Dawley, Deaths + Clinical Observation: Clonic convulsion Cyanosis Salivation Rearing decrease + Body Weight Changes: decrease + Food Consumption: …) was < 20 mg/kg-day.
For `C=CCOC(C)=O` [Allyl acetate], the NOEL (subchronic, gavage, M/F, Fischer 344, Deaths + Body Weight Changes: decrease + Hematology: Hgb decrease, Plt increase, WBC increase + Blood Chemistry: TP decrease, Alb decrease, …) was < 6 mg/kg-day.

— EPA's ToxValDB 9.5
